Reference: article PMC7866972, “Crosstalk of Cancer Signaling Pathways by Cyclic Hexapeptides and Anthraquinones from Rubia cordifolia” (Molecules, 2021)

How the values were obtained:
Format in all cases: cell-based
[1] = system: Stat3; test: Stat3 luciferase reporter assay (IL-6 induced); settings: Homo sapiens, HeLa cells
Protocol: (§1) Hela cells from ATCC were plated in white opaque 384 well plates at a density of 4300 cells/well in 30 µL of a growth medium (DMEM with 10% FBS and 1% Pen/step). The next day, the medium was aspirated and replaced with DMEM containing 10% FBS. The cells were transfected with respective plasmids using the X-tremeGENE HP transfection reagent (Roche). Luciferase vectors used in this assay are summarized in Table S2, Supporting Information. After 24 h of transfection, the test agents were added to the transfected cells, followed 30 min later by an inducing agent (IL-6 for Stat 3, TGF-beta for Smad, m-wnt3a for Wnt and PMA for AP-1, NF-kB, E2F, Myc, ETS, Notch and Hedgehog). No inducer was added for FoXO, miR-21, and […]. After 4 h or 6 h of induction, the cells were lysed by the addition of the One-Glo luciferase assay system (Promega, Madison, WI, USA). The light output was detected in a Glomax Multi+ detection system with the Instinct Software (Promega, Madison, WI, USA). This luciferase assay determines if the test agent was able to inhibit the activation of cancer-related signaling pathways. In the case of FoxO and mi-R21, the enhanced luciferase activity by the test agent was assessed.

[2] = system: Smad; test: Smad luciferase reporter assay (TGF-beta induced); settings: Homo sapiens, HeLa cells
Protocol: as §1

[3] = system: Ap-1; test: AP-1 luciferase reporter assay (PMA induced); settings: HeLa cells, compared to pTK as control, 4 h, read-out: percentage of luciferase induction Ap-1/PMA
Protocol: as §1

[4] = system: NF-κB; test: NF-κB luciferase reporter assay (PMA induced); settings: HeLa cells
Protocol: as §1

[5] = system: E2F; test: E2F luciferase reporter assay (PMA induced); settings: Homo sapiens, HeLa cells, compared to pTK as control, 4 h, read-out: percentage of luciferase induction E2F/PMA
Protocol: as §1

[6] = system: Myc; test: Myc luciferase reporter assay (PMA induced); settings: Homo sapiens, HeLa cells
Protocol: as §1

[7] = system: Ets; test: Ets luciferase reporter assay (PMA induced); settings: Homo sapiens, HeLa cells
Protocol: as §1

[8] = system: Notch; test: Notch luciferase reporter assay (PMA induced); settings: Homo sapiens, HeLa cells, compared to pTK as control, 6 h, read-out: percentage of luciferase induction Notch/PMA
Protocol: as §1

[9] = system: FoxO; test: FoxO luciferase reporter assay (no inducer); settings: Homo sapiens, HeLa cells, 6 h, read-out: percentage of luciferase induction FoxO/No Induction
Protocol: as §1

[10] = system: Wnt; test: Wnt luciferase reporter assay (m-wnt3a induced); settings: Homo sapiens, HeLa cells
Protocol: as §1

[11] = system: Hedgehog; test: Hedgehog luciferase reporter assay (PMA induced); settings: Homo sapiens, HeLa cells, compared to pTK as control, 6 h, read-out: percentage of luciferase induction Hdghog/PMA
Protocol: as §1

[12] = system: miR-21; test: miR-21 luciferase reporter assay (no inducer); settings: Homo sapiens, HeLa cells, 6 h, read-out: percentage of luciferase induction mi-R21/No Induction
Protocol: as §1

[13] = system: pTK control vector; test: pTK control vector luciferase assay (minimal thymidine kinase promoter); settings: Homo sapiens, HeLa cells, no inducer, read-out: percentage of luciferase induction pTK/No Induction
Protocol: as §1

[14] = system: cancer-related signaling pathways in HeLa cells; test: Panel of luciferase reporter genes for cancer-related signaling pathways; settings: HeLa cells; 30 µM
Protocol: as §1
The simulated gastric fluid was prepared as described in the United States Pharmacopoeia (USP, 1995) and consists of 0.2% w/v of NaCl and 0.7% v/v of hydrochloric acid at pH 1.2. Aliquots (48 µL) of SGF were placed in 1.5-mL microcentrifuge tubes and incubated in a water bath at 37 °C [35]. In addition, 2 µL of compound 6 (10 mg/mL in DMSO) was added to each of the SGF vials to start the digestion reaction. The incubation was continued for 60 min and the digestion was stopped with 150 µL of ice-cold cell culture media. The digested samples were used for the cytotoxicity and luciferase assays at different concentrations and the activities were compared between the untreated and SGF treated peptide samples.

[15] = compared to pTK as control, 4 h, read-out: percentage of luciferase induction Stat3/IL-6
[16] = compared to pTK as control, 4 h, read-out: percentage of luciferase induction Smad/TGF-β
[17] = Homo sapiens, compared to pTK as control, 4 h, read-out: percentage of luciferase induction NF-kB/PMA
[18] = compared to pTK as control, 4 h, read-out: percentage of luciferase induction Myc/PMA
[19] = compared to pTK as control, 4 h, read-out: percentage of luciferase induction Ets/PMA
[20] = compared to pTK as control, 6 h, read-out: percentage of luciferase induction Wnt/m-wnt 3a

Structure (SMILES)	activity at 30 µM [1, 15] [%]	activity at 30 µM [2, 16] [%]	activity at 30 µM [3] [%]	activity at 30 µM [4, 17] [%]	activity at 30 µM [5] [%]	activity at 30 µM [6, 18] [%]	activity at 30 µM [7, 19] [%]	activity at 30 µM [8] [%]	activity at 30 µM [9] [%]	activity at 30 µM [10, 20] [%]	activity at 30 µM [11] [%]	activity at 30 µM [12] [%]	activity at 30 µM [13] [%]	activity towards the signaling pathways (in words) [14]	further results
O=C1c2ccccc2C(=O)c2c1ccc(O)c2O [Compound 1, alizarin]	81	109	87	60	172	61	66	106	69	46	57	141	116	selective inhibition of Wnt and Hedgehog signaling pathways	–
O=C1c2ccccc2C(=O)c2c(O)c(O)cc(O)c21 [Compound 2, purpurin]	102	163	73	65	190	61	103	194	94	77	152	259	198	least active among these three anthraquinones	–
Cc1cc(O)c2c(c1)C(=O)c1cc(O)cc(O)c1C2=O [Compound 3, emodin]	48	46	45	45	144	46	53	424	112	11	42	309	144	inhibited the activation of several pathways with Wnt being the most sensitive	–
Cc1cc(O)c2c(c1)C(=O)c1cccc(O)c1C2=O [Compound 11, chrysophanol, reference compound]	171	160	115	90	251	144	130	195	102	114	214	280	183	–	–
O=C1c2cccc(O)c2C(=O)c2c(O)cccc21 [Compound 12, danthron, reference compound]	137	101	122	62	328	115	120	126	85	122	168	156	101	–	–
O=C1c2ccccc2C(=O)c2c(O)ccc(O)c21 [Compound 13, quinizarin, reference compound]	164	159	107	62	282	81	127	198	101	97	142	171	134	–	–
O=C1c2cccc(O)c2C(=O)c2c(O)cc(CO)cc21 [Compound 14, aloe-emodin, reference compound]	132	78	138	–	178	95	128	157	109	129	99	167	136	–	–
CC1(C)CCC2=C(O1)C(=O)c1ccccc1C2=O [Compound 15, α-lapachone, reference compound]	–	–	–	–	–	–	–	–	–	–	–	–	–	–	activity at 5 µM ([1]; 5 µM, compared to pTK as control, 4 h, read-out: percentage of luciferase induction Stat3/IL-6): 22%; inhibition at 5 µM ([1]; 5 µM, read-out: inhibition of Stat3 induction): > 50%; activity at 5 µM ([2]; 5 µM, compared to pTK as control, 4 h, read-out: percentage of luciferase induction Smad/TGF-β): 27%; inhibition at 5 µM ([2]; 5 µM, read-out: inhibition of Smad induction): > 50%; activity at 5 µM ([3]; 5 µM): 88%; inhibition of NF-kB induction ([4]; 5 µM): more than 50%; activity at 5 µM ([4]; Homo sapiens, 5 µM, compared to pTK as control, 4 h, read-out: percentage of luciferase induction NF-kB/PMA): 44%; activity at 5 µM ([5]; 5 µM): 82%; activity at 5 µM ([6]; 5 µM, compared to pTK as control, 4 h, read-out: percentage of luciferase induction Myc/PMA): 44%; inhibition at 5 µM ([6]; 5 µM, read-out: inhibition of Myc induction): > 50%; activity at 5 µM ([7]; 5 µM, compared to pTK as control, 4 h, read-out: percentage of luciferase induction Ets/PMA): 45%; inhibition at 5 µM ([7]; 5 µM, read-out: inhibition of ETS induction): > 50%; activity at 5 µM ([8]; 5 µM): 85%; activity at 5 µM ([9]; 5 µM): 100%; activity at 5 µM ([10]; 5 µM, compared to pTK as control, 6 h, read-out: percentage of luciferase induction Wnt/m-wnt 3a): 53%; inhibition at 5 µM ([10]; 5 µM, read-out: inhibition of Wnt induction): > 50%; activity at 5 µM ([11]; 5 µM): 86%; activity at 5 µM ([12]; 5 µM): 127%; activity at 5 µM ([13]; 5 µM): 97%
